We go through 18 compounds from US10934276B2, “Positive allosteric modulators of the muscarinic acetylcholine receptor M4” (Vanderbilt University, priority 2016, dated 2021).

For series [1] the following is noted: patients treated with AChE inhibitors such as tacrine; cited from earlier work.
The target in another series is T1, Human M4 (Homo sapiens, UniProt P08173).
T1 construct: expressed in transfected cells; host or cells: CHO-K1 (ATCC), stably expressing hM4 and Gqi5
T1 sequence (P08173 1-479): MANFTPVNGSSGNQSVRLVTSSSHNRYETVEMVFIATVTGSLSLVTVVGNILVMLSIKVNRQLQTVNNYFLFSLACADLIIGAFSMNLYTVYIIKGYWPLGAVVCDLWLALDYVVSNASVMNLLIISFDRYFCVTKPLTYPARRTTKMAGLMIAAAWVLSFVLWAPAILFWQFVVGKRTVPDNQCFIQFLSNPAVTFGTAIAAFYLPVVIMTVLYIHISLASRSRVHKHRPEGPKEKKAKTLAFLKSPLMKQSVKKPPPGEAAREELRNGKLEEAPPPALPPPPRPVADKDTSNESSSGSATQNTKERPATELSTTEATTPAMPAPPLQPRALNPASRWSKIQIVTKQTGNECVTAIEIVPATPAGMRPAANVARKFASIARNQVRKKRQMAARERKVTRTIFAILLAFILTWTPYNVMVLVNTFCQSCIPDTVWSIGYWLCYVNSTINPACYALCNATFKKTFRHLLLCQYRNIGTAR
The series can be described thus: mAChR M4 cell-based functional assay (calcium flux, potentiation of EC20 acetylcholine response in CHO-K1 hM4-Gqi5 cells). Conditions: for Emax at 30 µM: CHO-K1, % ACh maximum at 30 μM, human M4; for EC50: positive allosteric modulator mode, EC20 acetylcholine, CHO-K1 cells with human M4 and Gqi5. The method, then:
Human M4 cDNA, along with the chimeric G protein Gqi5, were transfected into Chinese hamster ovary (CHO—K1) cells purchased from the American Type Culture Collection using Lipofectamine2000. hM4-Gqi5 cells were grown in Ham's F-12 medium containing 10% heat-inactivated fetal bovine serum (FBS), 20 mM HEPES, 50 μg/mL G418 sulfate, and 500 μg/mL Hygromycin B. rM4-Gqi5 cells were grown in DMEM containing 10% heat-inactivated FBS, 20 mM HEPES, 400 μg/mL G418 sulfate, and 500 μg/mL Hygromycin B.
For high throughput measurement of agonist-evoked increases in intracellular calcium, CHO—K1 cells stably expressing muscarinic receptors were plated in growth medium lacking G418 and hygromycin at 15,000 cells/20 μL/well in Greiner 384-well black-walled, tissue culture (TC)-treated, clear-bottom plates (VWR). Cells were incubated overnight at 37° C. and 5% CO2. The next day, cells were washed using an ELX 405 (BioTek) with assay buffer; the final volume was then aspirated to 20 μL. Next, 20 μL of a 2.3 μM stock of Fluo-4/acetoxymethyl ester (Invitrogen, Carlsbad, Calif.), prepared as a 2.3 mM stock in DMSO and mixed in a 1:1 ratio with 10% (w/v) Pluronic F-127 and diluted in assay buffer, was added to the wells and the cell plates were incubated for 50 min at 37° C. and 5% CO2. Dye was removed by washing with the ELX 405 and the final volume was aspirated to 20 μL. Compound master plates were formatted in an 11 point concentration-response curve (CRC) format (1:3 dilutions) in 100% DMSO with a starting concentration of 10 mM using a BRAVO liquid handler (Agilent). Test compound CRCs were then transferred to daughter plates (240 nL) using the Echo acoustic plate reformatter (Labcyte, Sunnyvale, Calif.) and then diluted into assay buffer (40 μL) to a 2× stock using a Thermo Fisher Combi (Thermo Fisher Scientific, Waltham, Mass.).
Calcium flux was measured using the Functional Drug Screening System (FDSS) 6000 or 7000 (Hamamatsu Corporation, Tokyo, Japan) as an increase in the fluorescent static ratio. Compounds were applied to cells (20 μL, 2×) using the automated system of the FDSS at 2-4 seconds into the protocol and the data were collected at 1 Hz. At 144 seconds, 10 μL of an EC20 concentration of the muscarinic receptor agonist acetylcholine was added (5×), followed by the addition of 12 μL of an EC80 concentration of acetylcholine at the 230 second time point (5×). Agonist activity was analyzed as a concentration-dependent increase in calcium mobilization upon compound addition. Positive allosteric modulator activity was analyzed as a concentration-dependent increase in the EC20 acetylcholine response. With the acetylcholine EC20 set as baseline, the test compound EC50 is determined as the concentration that produces an increase above baseline of 50% of the maximum increase in acetylcholine response elicted by the test compound. Antagonist activity was analyzed as a concentration-dependent decrease in the EC80 acetylcholine response. Concentration-response curves were generated using a four-parameter logistical equation in XLFit curve fitting software (IDBS, Bridgewater, N.J.) for Excel (Microsoft, Redmond, Wash.) or Prism (GraphPad Software, Inc., San Diego, Calif.).
Compounds were synthesized as described above. Activity (EC50 and Emax) was determined in the mAChR M4 cell-based functional assay as described above and the data are shown in Table 3. The compound numbers correspond to the compound numbers used in Examples 2-4 and Tables 1 and 2.

By Emax is commonly meant the size of the effect at its maximum, as opposed to the concentration needed. A word on the EC50: it is the midpoint of the concentration-response curve.

On to `Nc1c2c(nc3ccccc13)CCCC2` [tacrine], for which the “patients with elevated liver transaminases (hepatotoxicity)” value in series [1] is “about 30%”.

Turning to `COc1cc(N2CC(NC(=O)c3ccc4nnc(C)c(C)c4c3)C2)c(Cl)cn1` [Compound 14, N-[1-(5-chloro-2-methoxy-4-pyridyl)azetidin-3-yl]-3,4-dimethyl-cinnoline-6-carboxamide], on Human M4, the Emax at 30 µM is 74.1% and the 50% effective concentration (EC50) came to 370 nM.

With `Cc1nnc2ccc(C(=O)NC3CN(c4ncc(Cl)cc4F)C3)cc2c1C` [Compound 36, N-[1-(5-chloro-3-fluoro-2-pyridyl)azetidin-3-yl]-3,4-dimethyl-cinnoline-6-carboxamide], on Human M4, the maximal response (Emax) at 30 µM was determined as 82% and the concentration giving a half-maximal response (EC50) worked out at 650 nM.

As for `COc1ccc(CNC(=O)c2ccc3nnc(C)c(C)c3c2)cc1F` [Compound 15, N-[(3-fluoro-4-methoxy-phenyl)methyl]-3,4-dimethyl-cinnoline-6-carboxamide], on Human M4, the Emax at 30 µM is 72.3% and the concentration giving a half-maximal response (EC50) worked out at 1890 nM. The like results for `Cc1cc(C)c2cc(C(=O)NC3CN(c4cc(Cl)ncc4Cl)C3)ccc2n1` [Compound 5, N-[1-(2,5-dichloro-4-pyridyl)azetidin-3-yl]-2,4-dimethyl-quinoline-6-carboxamide] were, in that order, 52.5% and 190 nM. The like results for `Cc1nnc2ccc(C(=O)NC3CCCC3)cc2c1C` [Compound 41, N-cyclopentyl-3,4-dimethyl-cinnoline-6-carboxamide] were, in that order, 53.5% and > 10000 nM. For `Cc1nnc2ccc(C(=O)NC3CN(c4ncc(F)cc4Cl)C3)cc2c1C` [Compound 26, N-[1-(3-chloro-5-fluoro-2-pyridyl)azetidin-3-yl]-3,4-dimethyl-cinnoline-6-carboxamide], at Human M4, the Emax at 30 µM came out at 79.7% and the EC50 was 460 nM. The like results for `Cc1nnc2ccc(C(=O)NC3CN(c4cccc(C(F)(F)F)n4)C3)cc2c1C` [Compound 38, 3,4-dimethyl-N-[1-[6-(trifluoromethyl)-2-pyridyl]azetidin-3-yl]cinnoline-6-carboxamide] were, in that order, 64.2% and 3360 nM. Turning to `Cc1nnc2ccc(C(=O)NC3CN(c4ncc(C5CC5)cc4Cl)C3)cc2c1C` [Compound 27, N-[1-(3-chloro-5-cyclopropyl-2-pyridyl)azetidin-3-yl]-3,4-dimethyl-cinnoline-6-carboxamide], on Human M4, the Emax at 30 µM stood at 77.2% and the EC50 was found to be 1390 nM.

Regarding `COc1cc(N2CC(NC(=O)c3ccc4nc(C)cc(C)c4c3)C2)c(Cl)cn1` [Compound 2, N-[1-(5-chloro-2-methoxy-4-pyridyl)azetidin-3-yl]-2,4-dimethyl-quinoline-6-carboxamide], on Human M4, the maximal response (Emax) at 30 µM was 39.3% and the 50% effective concentration (EC50) is 540 nM. The like results for `Cc1nnc2ccc(C(=O)NC3CN(c4cnc(C(F)(F)F)cn4)C3)cc2c1C` [Compound 21, 3,4-dimethyl-N-[1-[5-(trifluoromethyl)pyrazin-2-yl]azetidin-3-yl]cinnoline-6-carboxamide] were, in that order, 77.8% and > 10000 nM. For `Cc1nnc2ccc(C(=O)NC3CN(c4ncc(F)cn4)C3)cc2c1C` [Compound 19, N-[1-(5-fluoropyrimidin-2-yl)azetidin-3-yl]-3,4-dimethyl-cinnoline-6-carboxamide] the same measures were 75.4% and > 10000 nM.

Turning to `Cc1nnc2ccc(C(=O)NC3CN(c4ccc(OC(F)F)nc4)C3)cc2c1C` [Compound 31, N-[1-[6-(difluoromethoxy)-3-pyridyl]azetidin-3-yl]-3,4-dimethyl-cinnoline-6-carboxamide], at Human M4, the maximum response (Emax) at 30 µM turned out to be 80.8% and the EC50 came out at 1460 nM. The like results for `Cc1nnc2ccc(C(=O)NC3CN(c4ncccc4Cl)C3)cc2c1C` [Compound 35, N-[1-(3-chloro-2-pyridyl)azetidin-3-yl]-3,4-dimethyl-cinnoline-6-carboxamide] were, in that order, 83.7% and 950 nM. The like results for `Cc1nnc2ccc(C(=O)NC3CN(c4ncc(C(F)(F)F)cn4)C3)cc2c1C` [Compound 17, 3,4-dimethyl-N-[1-[5-(trifluoromethyl)pyrimidin-2-yl]azetidin-3-yl]cinnoline-6-carboxamide] were, in that order, 76.7% and > 10000 nM. For `Cc1nnc2ccc(C(=O)NC3CN(c4ccc(Cl)cn4)C3)cc2c1C` [Compound 23, N-[1-(5-chloro-2-pyridyl)azetidin-3-yl]-3,4-dimethyl-cinnoline-6-carboxamide] the same measures were 73.4% and 1270 nM. Regarding `Cc1nnc2ccc(C(=O)NC3CN(c4ccc(F)c(F)c4)C3)cc2c1C` [Compound 18, N-[1-(3,4-difluorophenyl)azetidin-3-yl]-3,4-dimethyl-cinnoline-6-carboxamide], on Human M4, the Emax at 30 µM was 81.7% and the EC50 turned out to be 740 nM. For `Cc1nnc2ccc(C(=O)NC3CN(c4ncc(C#N)cc4Cl)C3)cc2c1C` [Compound 29, N-[1-(3-chloro-5-cyano-2-pyridyl)azetidin-3-yl]-3,4-dimethyl-cinnoline-6-carboxamide] the same measures were 71.6% and 300 nM.
